Source: patent US20230021329A1, “NANOSTRUCTURED BINARY GEL COMPOSITION AND USE THEREOF” (Veri Nano Inc., priority 2019, published 2023)

Assay: Release study of agents from the gel
Type: physicochemical
[1] = release from hydrogel composition #4, 10 h in PBS

Protocol: 25 ml of PBS was added to each of the beakers. The beakers were put on a plate shaker (Delfia 1296-004) and shaken at the “low” setting for 10 h. The liquid was centrifuged at 21130 rcf for 10 min, and the supernatants were taken for analysis.
BSA Protein release from the nanoparticles was quantified via nanodrop spectrophotometer to determine the concentration of protein in the supernatant, after creating a nanoparticle pellet on centrifugation, all these after 10 hours of incubation in PBS at room temperature.
The concentration released of the Rhodamine B was determined by talking the supernatant after 10 h, centrifuged and diluted the solution by 10×. Subsequently, the absorbance was measured by using a plate reader (Varioskan Lux) and compared to a calibration curve.

SMILES: CCN(CC)c1ccc2c(-c3ccccc3C(=O)O)c3ccc(=[N+](CC)CC)cc-3oc2c1.[Cl-] [Rhodamine B]
- amount released [1]: 6.3 mg
- percent release [1]: 5.7%
- concentration in supernatant (release from hydrogel composition #4, supernatant after 10 h, absorbance vs calibration curve): 252 μ/ml
